From US12454675B2, “Method of increasing protein yield in mammalian cells in serum-free culture medium” (AGENCY FOR SCIENCE, TECHNOLOGY AND RESEARCH, priority 2016, dated 2025)

Columns and labels:
CHO-K1 cells [1] = assay: Adaptation of CHO-K1 cells into HyQ PF-CHO media with different disaccharides; assay type: cell-based, Chinese Hamster; details: 3.6 g/l sugar
Procedure: Viable cell density and culture viability were determined by Trypan blue dye exclusion method using Vi-Cell XR Cell Viability Analyzer (Beckman Coulter, Brea, CA) according to manufacturer's instructions. For biochemical and other cell culture parameter analyses, 1 ml of culture sample was centrifuged at 8000 g for 10 minutes to obtain clarified supernatant. […] At each passage during the adaptation process, viable cell density and culture viability before passage and after inoculation into fresh media were determined. […] Osmolality of these culture media were determined to be between 308 and 324 mOsm/kg, well within the range for optimal mammalian cell culture. The viable cell densities and culture viabilities of these cultures at the beginning and end of each passage over a period of 74 days are shown in FIG. 1. […] However, culture viabilities and viable cell densities of the maltose culture started to pick up on Day 14. Proliferation of the cells in maltose culture then maintained over the period of the time studied, while those in the other disaccharides were terminated on Day 31 due to the lack of cell growth and depressed culture viabilities.

CHO-K1 cells [2] = assay: Shake flask batch growth and biochemical profiles of CHO-K1 in maltose or glucose medium; assay type: cell-based, Chinese Hamster
Procedure: Viable cell density and culture viability were determined by Trypan blue dye exclusion method using Vi-Cell XR Cell Viability Analyzer (Beckman Coulter, Brea, CA) according to manufacturer's instructions. For biochemical and other cell culture parameter analyses, 1 ml of culture sample was centrifuged at 8000 g for 10 minutes to obtain clarified supernatant. Concentrations of ammonium, glutamine, glucose and lactate were analyzed by the BioProfile 100 Plus (Nova Biomedical, Waltham, MA). Osmolality was measured using a vapor pressure osmometer (Vapro 5520, Wescor, Logan, UT), according to manufacturer's instructions. Maltose concentration was quantified using Maltose Colorimetric/Fluorometric Assay Kit (Biovision, Milpitas, CA), according to manufacturer's instructions. […] Cells were cultivated in single-use Erlenmeyer flasks (Corning), with a cell seeding density of 0.3×10^6 cells/ml in duplicates. Cell culture samples were collected and analyzed daily throughout the duration of the growth profile experiment until culture viabilities fell below 50%. When necessary, culture supernatant samples were stored at -20° C. for further analysis. […]0)=μt Equation 1

[3] = Maltose and glucose profiles in cell-free conditioned media; assay type: physicochemical; details: cell-free conditioned media of Days 2, 4, 6, 8; 3 g/l maltose; 37° C., 3 days
Procedure: In (A) SH87 cell were routinely maintained in glucose-only PFCDM was sub-cultivated into PFCDM with 4 g/l glucose, or 4 g/l glucose+3 g/l maltose. On Days 2, 4, 6 and 8, cell-free conditioned medium (CM) were harvested from both cultures. Viable cell densities (lined marker) and culture viabilities (marker only) were also monitored. In (B) CM from the maltose supplemented culture were incubated for a further 3 days at 37° C. Samples were harvested daily from these CM, starting from the day of harvest, to determine glucose and maltose concentrations. In (C) CM harvested from the glucose culture were spiked with maltose to a final concentration of 3 g/l prior to further incubation at 37° C. Samples from these CM were harvested daily for a further three (3) days to determine glucose and maltose concentrations. The averages and standard deviations from two (2) replicate shake flasks were plotted.
To further validate that the maltose was indeed utilized by the cells and not hydrolyzed in the culture media, cell-free conditioned media (CM) from Days 2, 4, 6 and 8 were obtained from a 3 g/l maltose supplemented culture as well as a 4 g/l glucose culture. 3 g/l maltose was spiked into the CM from the glucose culture, and both sets of CM were monitored over 3 days for changes in glucose and maltose concentrations at 37° C. (FIG. 4). […]

HEK293 cells = assay: Disaccharides to support growth of HEK293 cells in PFCDM; assay type: cell-based; details: 10 g/l sugar, seeding 1.0×10^6 cells/ml, 22 days
Source text: In (A) CHO-K1 cells were cultivated in a serum-free protein-free cell culture medium, HyQ PF-CHO, with 3.6 g/l of different sugars (maltose, sucrose, lactose, trehalose or glucose) as carbohydrate source. The viable cell densities (lined markers) and culture viabilities (marker only) of these cultures at the beginning and end of each passage over a period of 74 days were plotted. Cultures with sucrose, lactose or trehalose were terminated on Day 31 due to the decreased culture viabilities and reduced viable cell densities. The experiment was repeated with a seeding cell density of 1.0×10^6 cells/ml to obtain similar results. In (B) CHO-DG44 cells were cultivated with a seeding cell density of 1.0×10^6 cells/ml in a serum-free protein-free cell culture medium, HyQ PF-CHO, with 10 g/l of different sugars (maltose, sucrose, lactose, trehalose or glucose) as carbohydrate source. The viable cell densities (lined markers) and cell viabilities (marker only) of these cultures at the beginning and end of each passage over a period of 22 days were plotted. In (C) HEK293 cells were cultivated with a seeding cell density of 1.0×10^6 cells/ml in a protein-free chemically defined cell culture medium, PFCDM, with 10 g/l of different sugars (maltose, sucrose, lactose, trehalose or glucose) as carbohydrate source. The viable cell densities (lined markers) and cell viabilities (marker only) of these cultures at the beginning and end of each passage over a period of 22 days were plotted. Cultures with sucrose, lactose or trehalose were terminated on Day 14 due to the decreased culture viabilities and reduced viable cell densities.

[4] = CHO-K1 maltose culture, 3.6 g/l

## OC[C@H]1O[C@H](O[C@H]2[C@H](O)[C@@H](O)[C@H](O)O[C@@H]2CO)[C@H](O)[C@@H](O)[C@@H]1O [maltose]
CHO-K1 cells [1]
  day on which culture viabilities and viable cell densities started to pick up: 14 days
CHO-K1 cells [1]; seeding 0.3×10^6 cells/ml, 74 days
  proliferation in serum-free protein-free culture medium with the sugar as sugar source: can proliferate
CHO-K1 cells [2]; CHO-K1, 3.6 g/l sugar
  culture viabilities maintained over a longer period of time compared to glucose: greater than 80%
  day on which glutamine was completely utilized: 5 days
  final ammonium concentration: 0.20 g/L
CHO-K1 cells [2]; CHO-K1, 3.6 g/l sugar, viable cell density data till Day 4
  doubling time: 53.7 h
CHO-K1 cells [2]; CHO-K1, HyQ PF-CHO, 3.6 g/l sugar, initial 0.3×10^6 cells/ml, maltose Day 7, glucose Day 6
  maximum viable cell density: 1.4×10^6 cells/ml
CHO-K1 cells [2]; [4]
  glucose in the culture medium: not detectable
  lactate production: lack of lactate production
[3]
  maltose hydrolysis in conditioned culture media: not occurring spontaneously
HEK293 cells
  proliferation in serum-free culture medium with the sugar as sugar source: can proliferate
